“And” between values parts separate entries of the source, which are not always exact repeats. Equal values may be shown once. “Also recorded” adds a separate entry of the source.
Columns and labels:
[1] = system: Nadorcott variety (mandarin); assay: Treatment of entire trees, number of seeds in the fruit; format: in vivo
grapes Vitis vinifera L. = assay: Treatment of individual pollinated flowers, pollen tubes in the stigma by fluorescence microscopy; format: in vivo
Procedure: (§1) Flower: treatment on individual flowers and microscopic observation of fluorescence. In this case the presence or absence of pollen tubes (PT) in the stigma was assessed as was their percentage reduction compared to positive controls. […] C+=Positive control=flower pollinated but NOT treated with the active product; PT=Pollen tubes (fluorescent fibres); AP=Active product.

[2] = system: cucumber fruit Cucumis sativus L.; assay: Treatment of individual flowers, observation of the fruit formed (seeds); format: in vivo; conditions: scale Fruit
Description: (§2) Fruit: treatment of individual flowers and subsequent observation of the fruit formed from the treated flower. […] C+=Positive control=flower pollinated but NOT treated with the active product; PT=Pollen tubes (fluorescent fibres); AP=Active product.

[3] = system: aubergines Solanum melongena L.; assay: Treatment of individual flowers, fruit seeds and pollen tubes in the stigma; format: in vivo
Description: as §2

[4] = system: watermelons Citrullus lanatus (Thunb.) Matsum. & Nakai; assay: Treatment of individual flowers, pollen tubes in the stigma; format: in vivo
Procedure: Flower: treatment on individual flowers and microscopic observation of fluorescence. In this case the presence or absence of pollen tubes (PT) in the stigma was assessed as was their percentage reduction compared to positive controls. Fruit: treatment of individual flowers and subsequent observation of the fruit formed from the treated flower. […] C+=Positive control=flower pollinated but NOT treated with the active product; PT=Pollen tubes (fluorescent fibres); AP=Active product.

Mexican lime = assay: Treatment of individual pollinated flowers, pollen tubes in the stigma; format: in vivo
Procedure: as §1

[5] = system: Murcott Citrus reticulata White; assay: as above; format: in vivo
Procedure: as §1

Nadorcott (mandarin) [6] = assay: as above; format: in vivo
Procedure: as §1

[7] = system: Nova. C. clementine x [C.paradisi x C.tangerina]; assay: as above; format: in vivo
Procedure: as §1

[8] = system: clementine fina Citrus clementine hort. Ex Tanaka; assay: as above; format: in vivo
Procedure: as §1

[9] = system: clemenules Citrus clementine hort. Ex Tanaka; assay: as above; format: in vivo
Procedure: as §1

[10] = system: lemons Citrus limon L. Burm. f.; assay: as above; format: in vivo
Procedure: as §1

Nadorcott (mandarin) [11] = assay: Field treatment by tractor on entire rows of adult trees, seeds; format: in vivo; conditions: scale Field
Description: Field: treatments by tractor on entire rows of adult trees.

Sweet orange = assay: Treatment of individual pollinated flowers, pollen tubes in the stigma; format: in vivo, orange tree
Procedure: as §1

Grapefruit = assay: as above; format: in vivo, grapefruit tree
Procedure: as §1

[12] = system: flowers of the Nadorcott mandarin; assay: Action over time, pre-pollination treatment of flowers, seeds in fruit; format: in vivo; conditions: flowers treated, then pollinated D0 to D9; positive control 4.67 seeds
Procedure: (§3) In order to study the action over time of the product, two experiments were carried out on the flowers of the Nadorcott mandarin, one pre-pollination and the other post-pollination. In the pre-pollination experiment 300 flowers were treated with the product of the invention (S8) and subsequently pollinated in batches. One batch was pollinated on the same day (D0) and another batch the following day (D1), and so on successively until D9.

[13] = system: flowers of the Nadorcott mandarin; assay: Action over time, post-pollination treatment of flowers, seeds in fruit; format: in vivo
Procedure: as §3, with “D9. In the post-pollination experiment 360 flowers were first pollinated. In this case, after first having been pollinated a batch was treated with the product on the same day (D0), another batch the following day (D1) and so on successively until day 9 (D9).” for “D9.”

pollen grains = assay: Germination of pollen grains on Petri dishes; format: cell-based; conditions: assessed after 72 hours
Procedure: The action of the product on the germination of pollen grains was studied. To that end, pollen grains were sown on Petri dishes in laboratory conditions to which growing medium increasing concentrations of the active product (S8) were added. After 72 hours they were assessed and the number of germinated pollen grains were counted on each Petri dish.
A non-toxic, neutral product (sample), KNO3 was used for comparing the results with those obtained from the active product (AP).

[14] = system: adult trees of the Nadorcott mandarin variety; assay: Phyto-toxicity on sprayed adult trees (chlorosis, necrosis, defoliation); format: in vivo; conditions: recommended concentrations (below 4%); listed as active product
Procedure: Phyto-toxicity tests were performed on adult trees of the Nadorcott mandarin variety. The trees were sprayed with different concentrations of the active product (S8). The level of affection on chlorosis, necrosis and defoliation was assessed, on a scale of 1 to 6, with 1 being very low and 6 being very high.

[15] = system: common bumblebee (Bombus sp.); assay: Effects on pollinators, laboratory mortality test; format: in vivo; conditions: for toxicity classification for bumblebees / pollinators: international scale: non-toxic = acute LD50 >100 μg/bee
[16] = system: stigma papilla cells of mandarin flower; assay: Microscopy of stigma treated with sulphur only or gibberellic acid only; format: in vivo; conditions: for state of stigma papilla cells (semi-thin cut): mandarin stigma treated with a single component only; for pollen tubes in the stigma of pollinated mandarin flower (fluorescence microscope): treated with a single component only
Description: The active ingredient sulphur, preferably in the form of an octatomic molecule (S8), is responsible for preventing the formation of seeds through the alteration of papilla cells of the stigma, whilst the GA is responsible for re-establishing the stimuli needed for the formation of the fruit, thus preventing a possible reduction in yield. The need for GA will depend on each crop and its parthenocarpic capacity. […] This mechanism is substantially due to the effect of sulphur. […] The effect of the active ingredient (sulphur) and gibberellic acid (GA) on papilla cells can be compared separately in FIGS. 6 and 7 through semi-thin microscope cuts.

mandarin = conditions: literature [1,2]; cited from earlier work
[17] = purified powder; cited from earlier work

S1SSSSSSS1 [(S8), sulphur (S) as an octatomic molecule (S8)]
red. of seeds ([1]; Nadorcott, scale Tree): ~85%
reduction of the average number of seeds compared to the positive control (in words) ([1]; entire Nadorcott trees, six experimental products compared): only one to significantly reduce the average number of seeds
mean number of seeds in the fruit ([1]; entire Nadorcott trees, about 120 fruits per treatment, positive control C+ 3.3, listed as T1): 0.4 and 0.4083
red. of PT (grapes Vitis vinifera L.; Vid, scale Flower, vs positive control): =100% red. of PT (FIG. 9A and 9B)
pollen tubes in treated stigma (fluorescence image) (grapes Vitis vinifera L.; grape, pollinated flower): without PT
red. seeds [2]: =100% red. seeds (FIG. 10A and 10B)
red. seeds ([3]; Aubergine, scale Fruit): =100% red. seeds (FIG. 11A and 11B)
pollen tubes in treated stigma (fluorescence image) ([3]; aubergine): without PT
red. of PT ([4]; Watermelon, scale printed Fruit): =100% red. of PT (FIG. 12A and 12B)
pollen tubes in treated stigma (fluorescence image) ([4]; watermelon): without PT
pollen tubes in treated pollinated flowers (fluorescence image) (Mexican lime): No visible PT
red. of PT (Mexican lime; scale Flower): =100% red. of PT (FIG. 20)
pollen tubes in treated stigma (fluorescence image) [5]: without PT
red. of PT ([5]; scale Flower): =100% red. of PT (FIG. 15A and 15B)
red. of PT (Nadorcott (mandarin) [6]; Nadorcott, scale Flower): =100% red. of PT
efficiencies when applied directly on the flower (Nadorcott (mandarin) [6]; direct application on the flower): 95-100%
pollen tubes in treated stigma (fluorescence image) ([7]; Nova): without PT
red. of PT ([7]; Nova (tangelo), scale Flower): =100% red. of PT (FIG. 16A and 16B)
red. of PT ([8]; Fina, scale Flower): =100% red. of PT (FIG. 14A and 14B)
pollen tubes in treated stigma (fluorescence image) ([8]; clementine fina): without PT
red. of PT ([9]; Clemenules, scale Flower): =100% red. of PT (FIG. 13A and 13B)
pollen tubes in treated stigma (fluorescence image) ([9]; clemenules): without PT
red. of PT ([10]; Lemon, scale Flower): =100% red. of PT (FIG. 17A and 17B)
pollen tubes in treated stigma (fluorescence image) ([10]; lemon): without PT
red. of seeds (Nadorcott (mandarin) [11]): =81% red. of seeds
red. of PT (Sweet orange; Sweet orange, scale Flower): =100% red. of PT (FIG. 18)
pollen tubes in treated pollinated flowers (fluorescence image) (Sweet orange; orange tree): No visible PT
red. of PT (Grapefruit; Grapefruit, scale Flower): =100% red. of PT (FIG. 19)
pollen tubes in treated pollinated flowers (fluorescence image) (Grapefruit; grapefruit tree): No visible PT
seeds in fruit after pre-pollination treatment [12]: did not present a single seed
seeds prevented, post-pollination treatment ([13]; treated D0 to D3 after pollination, positive control 4.7 seeds): 100%
seeds prevented, post-pollination treatment ([13]; treated D4-D9 after pollination): approximately 50%
concentration at which inhibition of pollen grain germination is total (pollen grains): 2000 mg/L
phyto-toxicity (chlorosis, necrosis, defoliation) [14]: does not produce necrosis, chlorosis or defoliation; also recorded: not phyto-toxic
mortality rate ([15]; bumblebees, at 48 h): 50%
toxicity classification for bumblebees / pollinators ([15]; listed as active ingredient): non-toxic
toxicity classification for bumblebees / pollinators ([15]; listed as active product): non-toxic for pollinator insects
state of stigma papilla cell (TEM) ([16]; TEM, crop not stated): lost turgidity and part of its components and appears collapsed
state of stigma papilla cells (semi-thin cut) [16]: damaged
state of stigma papilla cells (semi-thin cut) ([16]; listed as active ingredient (sulphur)): damaged stigma, without turgidity
pollen tubes in the stigma of pollinated mandarin flower (fluorescence microscope) ([16]; listed as active ingredient (S8)): without pollen tubes; also recorded: no pollen tubes in the stigmatic area

C=C1C[C@]23C[C@@]1(O)CC[C@H]2[C@@]12C=C[C@H](O)[C@@](C)(C(=O)O1)[C@H]2[C@@H]3C(=O)O [GA, gibberellic acid, reference compound]
state of stigma papilla cells (semi-thin cut) [16]: intact, functional and turgid
state of stigma papilla cells (semi-thin cut) ([16]; listed as gibberellic acid): good, functional and turgid
pollen tubes in the stigma of pollinated mandarin flower (fluorescence microscope) [16]: developed pollen tubes can be clearly observed
pollen tubes in the stigma of pollinated mandarin flower (fluorescence microscope) ([16]; listed as gibberellic acid): presence of pollen tubes inside the stigma can be clearly seen
effectiveness for reducing the number of seeds in real field conditions (in words) (mandarin): not effective for reducing the number of seeds
solubility in ethanol [17]: soluble in ethanol
solubility in water [17]: somewhat soluble in water

O=[N+]([O-])[O-].[K+] [Treatment T3, potassium nitrate, reference compound]
mean number of seeds in the fruit ([1]; in vivo): 3.333

OC[C@H]1O[C@@](CO)(O[C@H]2O[C@H](CO)[C@@H](O)[C@H](O)[C@H]2O)[C@@H](O)[C@@H]1O [Treatment T6, sucrose, reference compound]
mean number of seeds in the fruit ([1]; entire Nadorcott trees, about 120 fruits per treatment, positive control C+ 3.3): 3.183

From patent US20220346381A1, “COMPOSITION FOR PREVENTING THE FORMATION OF SEEDS IN FRUIT” (ASOCIACION CLUB DE VARIEDADES VEGETALES PROTEGIDAS, priority 2019, published 2022)
